Test results reported in the NIST ThermoML archive (doi:10.1021/je049895b).

Experiment: xn = mol fraction of the nth substance listed
Settings: 101.33 kPa, Liquid; for viscosity: Capillary tube (Ostwald / Ubbelohde) method

C1CCCC1 [cyclopentane] + CCOC(=O)OCC
Settings	mass density [kg/m3]	speed of sound [m/s]	viscosity [mPa·s]
293.15 K, x2 = 0	744.43	1232	0.438
293.15 K, x2 = 0.0491	757.21	1219	0.44
293.15 K, x2 = 0.0999	770.43	1209	0.445
293.15 K, x2 = 0.1898	793.45	1196	0.462
293.15 K, x2 = 0.2872	817.88	1186	0.486
293.15 K, x2 = 0.3894	842.77	1180	0.518
293.15 K, x2 = 0.5009	868.92	1178	0.559
293.15 K, x2 = 0.6023	891.92	1179	0.601
293.15 K, x2 = 0.7021	913.9	1181	0.646
293.15 K, x2 = 0.8053	935.69	1186	0.696
293.15 K, x2 = 0.9032	955.62	1191	0.748
293.15 K, x2 = 0.952	965.36	1194	0.778
298.15 K, x2 = 0	739.47	1206	0.415
298.15 K, x2 = 0.0491	752.18	1194	0.416
298.15 K, x2 = 0.0999	765.34	1184	0.421
298.15 K, x2 = 0.1898	788.24	1172	0.437
298.15 K, x2 = 0.2872	812.58	1163	0.459
298.15 K, x2 = 0.3894	837.37	1157	0.489
298.15 K, x2 = 0.5009	863.47	1156	0.527
298.15 K, x2 = 0.6023	886.43	1157	0.564
298.15 K, x2 = 0.7021	908.38	1160	0.606
298.15 K, x2 = 0.8053	930.14	1165	0.654
298.15 K, x2 = 0.9032	950.04	1170	0.699
298.15 K, x2 = 0.952	959.78	1174	0.726
303.15 K, x2 = 0	734.47	1180	0.394
303.15 K, x2 = 0.0491	747.11	1169	0.396
303.15 K, x2 = 0.0999	760.19	1159	0.399
303.15 K, x2 = 0.1898	782.99	1147	0.414
303.15 K, x2 = 0.2872	807.23	1139	0.435
303.15 K, x2 = 0.3894	831.95	1134	0.461
303.15 K, x2 = 0.5009	857.97	1133	0.496
303.15 K, x2 = 0.6023	880.91	1135	0.532
303.15 K, x2 = 0.7021	902.82	1138	0.57
303.15 K, x2 = 0.8053	924.56	1144	0.615
303.15 K, x2 = 0.9032	944.44	1150	0.655
303.15 K, x2 = 0.952	954.16	1153	0.68
308.15 K, x2 = 0	729.42	1154	0.374
308.15 K, x2 = 0.0491	741.99	1144	0.375
308.15 K, x2 = 0.0999	755	1134	0.379
308.15 K, x2 = 0.1898	777.7	1123	0.393
308.15 K, x2 = 0.2872	801.84	1115	0.412
308.15 K, x2 = 0.3894	826.49	1112	0.436
308.15 K, x2 = 0.5009	852.45	1111	0.47
308.15 K, x2 = 0.6023	875.35	1113	0.502
308.15 K, x2 = 0.7021	897.23	1117	0.537
308.15 K, x2 = 0.8053	918.94	1123	0.578
308.15 K, x2 = 0.9032	938.8	1129	0.616
308.15 K, x2 = 0.952	948.52	1133	0.638
313.15 K, x2 = 0	724.32	1129	0.355
313.15 K, x2 = 0.0491	736.82	1119	0.356
313.15 K, x2 = 0.0999	749.76	1110	0.36
313.15 K, x2 = 0.1898	772.35	1099	0.373
313.15 K, x2 = 0.2872	796.39	1092	0.391
313.15 K, x2 = 0.3894	820.95	1089	0.414
313.15 K, x2 = 0.5009	846.9	1089	0.444
313.15 K, x2 = 0.6023	869.75	1091	0.475
313.15 K, x2 = 0.7021	891.61	1096	0.508
313.15 K, x2 = 0.8053	913.29	1102	0.545
313.15 K, x2 = 0.9032	933.14	1109	0.58
313.15 K, x2 = 0.952	942.85	1112	0.6
